Literature values as cited in patent publication US9884121B2, “Biomaterials and a method for making and using same” (Alumend, LLC, priority 2007, dated 2018).

System: Skin-to-skin
Conditions: U.S. Pat. No. 5,817,303

SMILES: C=C(C#N)C(=O)OCC [Ethyl cyanoacrylate]
- Shear Strength: 385 ± 119 g-f/cm^2
